Here are results for two compounds from patent US10662146B2, “Prodrugs of fencamfamine” (Praxis Bioresearch, LLC, priority 2015, dated 2020).

In general, Cmax refers to the peak of the concentration-time curve. By Tmax is commonly meant the time from dosing to the highest level.

Structures are written as SMILES. Where “and” joins values, the source holds several entries; their conditions need not be identical. Identical values can stand only once. Like-named read-outs stand apart in the source and are kept apart here.

A short description of this data set: Single dose oral PK study in male Sprague Dawley rats (plasma by LC-MS/MS). The format is in vivo. The conditions noted are these: for Plasma concentration of PRX-002 (−) Isomer: PRX-002 (−) Isomer oral 5 mg/kg b.w. In a few lines:
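Fasted adult male Sprague Dawley rats (8-10 weeks) got a single oral dose of prodrug, as Tween 80/0.5% CMC suspension, equivalent to 5 mg/kg PRX-002 (up to 10 or 15 mg/kg in some studies). Retro-orbital K2EDTA blood was sampled over 24 h. Plasma fencamfamine was measured by LC-MS/MS.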

[1] abbreviates: single oral dose 5 mg/kg body weight, individual animals (R0175, R0176, R0177), plasma, 5 mg/kg.

For the compound `CCN[C@H]1[C@H]2CC[C@H](C2)[C@@H]1c1ccccc1` [PRX-002 (+) Isomer, (1S,2S,3R,4R)—N-Ethyl-3-phenylbicyclo[2.2.1]heptan-2-amine, reference compound], the “AUC% extrap of PRX-002(+) Isomer” value is, setting by setting: (PRX-002 (+) Isomer oral 5 mg/kg, mean, listed as PRX-002(+) Isomer, 5 mg/kg) 18.063 ±11.646%; (PRX-002 (+) Isomer oral 5 mg/kg, mean, listed as PRX-002 (+isomer), 5 mg/kg) 18.063 ± 11.646%. The AUC(0-inf) by setting is: (male, Sprague Dawley, rat, in vivo, po, 5 mg/kg, single oral dose 5 mg/kg b.w., mean plasma PK parameters (mean ± SD), read-out: AUCinf) 151 ± 68.6 ng·h/mL; (male, Sprague Dawley, rat, in vivo, po, 5 mg/kg, single oral dose 5 mg/kg body weight, mean of N=3 (Table 39.24), read-out: AUCinf) 151 ng·h/mL; (male, Sprague-Dawley, rat, in vivo, po, 5 mg/kg, PRX-002 (+) Isomer oral 5 mg/kg, mean, read-out: AUCinf of PRX-002(+) Isomer) 151 ± 68.6 ng·h/mL. The AUC(0-t) worked out at 128 ± 74.2 ng·h/mL (male, Sprague Dawley, rat, in vivo, po, 5 mg/kg, single oral dose 5 mg/kg b.w., mean plasma PK parameters (mean ± SD), read-out: AUClast); 128 ng·h/mL (male, Sprague Dawley, rat, in vivo, po, 5 mg/kg, single oral dose 5 mg/kg body weight, mean of N=3 (Table 39.24), read-out: AUClast); 128 ± 74.2 ng·h/mL (male, Sprague-Dawley, rat, in vivo, po, 5 mg/kg, PRX-002 (+) Isomer oral 5 mg/kg, mean, read-out: AUClast of PRX-002(+) Isomer). Also, the Cmax runs as follows: (male, Sprague Dawley, rat, in vivo, po, 5 mg/kg, single oral dose 5 mg/kg b.w., mean plasma PK parameters (mean ± SD), read-out: Cmax) 107 ± 25.4 ng/mL; (male, Sprague Dawley, rat, in vivo, po, 5 mg/kg, single oral dose 5 mg/kg body weight, individual animals (R0175, R0176, R0177), plasma, read-out: Cmax) 135 ng/mL; (male, Sprague Dawley, rat, in vivo, po, 5 mg/kg, single oral dose 5 mg/kg body weight, mean of N=3 (Table 39.24), read-out: Cmax) 107 ng/mL; (male, Sprague-Dawley, rat, in vivo, po, 5 mg/kg, PRX-002 (+) Isomer oral 5 mg/kg, mean, read-out: Cmax of PRX-002(+) Isomer) 107 ± 25.4 ng/mL; under setting [1], 85.44 ng/mL and 99.85 ng/mL. Also, the MRT last reads like this: (male, Sprague Dawley, rat, in vivo, po, 5 mg/kg, single oral dose 5 mg/kg b.w., mean plasma PK parameters (mean ± SD), read-out: MRTlast) 57.4 ± 16.1 min; (male, Sprague Dawley, rat, in vivo, po, 5 mg/kg, single oral dose 5 mg/kg body weight, individual animals (R0175, R0176, R0177), plasma, read-out: MRTlast) 75.6 min; (male, Sprague Dawley, rat, in vivo, po, 5 mg/kg, single oral dose 5 mg/kg body weight, mean of N=3 (Table 39.24), read-out: MRTlast) 57.4 min; (male, Sprague-Dawley, rat, in vivo, po, 5 mg/kg, PRX-002 (+) Isomer oral 5 mg/kg, mean, read-out: MRTlast of PRX-002(+) Isomer) 57.4 ± 16.1 min. In addition, the half-life (male, Sprague Dawley, rat, in vivo, po, 5 mg/kg, single oral dose 5 mg/kg b.w., mean plasma PK parameters (mean ± SD), read-out: T1/2 (converted)) was 59.5 ± 13.7 min; the half-life (male, Sprague Dawley, rat, in vivo, po, 5 mg/kg, single oral dose 5 mg/kg body weight, individual animals (R0175, R0176, R0177), plasma, read-out: T1/2 (converted)) was 64.2 min; the half-life (male, Sprague Dawley, rat, in vivo, po, 5 mg/kg, single oral dose 5 mg/kg body weight, mean of N=3 (Table 39.24), read-out: T1/2 (converted)) was 59.5 min; the half-life (male, Sprague-Dawley, rat, in vivo, po, 5 mg/kg, PRX-002 (+) Isomer oral 5 mg/kg, mean, read-out: T1/2 of PRX-002(+) Isomer (converted)) was 59.5 ± 13.7 min. The Tmax runs as follows: (male, Sprague Dawley, rat, in vivo, single oral dose 5 mg/kg body weight, individual animals (R0175, R0176, R0177), plasma, read-out: Tmax) 30 min; (male, Sprague-Dawley, rat, in vivo, PRX-002 (+) Isomer oral 5 mg/kg, mean, read-out: Tmax of PRX-002(+) Isomer) 30 min. For the same compound, the AUC% extrap runs as follows: (single oral dose 5 mg/kg b.w., mean plasma PK parameters (mean ± SD)) 18.063 ± 11.646%; under setting [1], 6.89% and 30.13% and 17.17%; (single oral dose 5 mg/kg body weight, mean of N=3 (Table 39.24)) 18.063%. Also, the AUCinf under setting [1] is 229.43 ng·h/mL and 124.51 ng·h/mL and 100.4 ng·h/mL. In addition, the AUClast under setting [1] is 213.62 ng·h/mL and 87 ng·h/mL and 83.16 ng·h/mL. Under setting [1], the MRTlast is 51.6 min and 45 min. Under setting [1], the T1/2 is 70.2 min and 44.4 min.
For `CCN[C@@H]1[C@@H]2CC[C@@H](C2)[C@H]1c1ccccc1` [PRX-002 (−) Isomer, (1R,2R,3S,4S)—N-Ethyl-3-phenylbicyclo[2.2.1]heptan-2-amine, reference compound], the “Plasma concentration of PRX-002 (−) Isomer” value stood at 0.00 (0.00 h, mean); 0.00 (0.08 h, mean); 50.20 (0.25 h, mean); 159.35 (0.50 h, mean); 170.35 (1.00 h, mean); 101.07 (2.00 h, mean). In addition, the “Plasma concentration of PRX-002 (−) Isomer” value runs as follows: (4.00 h, mean) 21.30; (6.00 h, mean) 0.00; (24.00 h, mean) 0.00. For the setting “PRX-002 (−) Isomer oral 5 mg/kg, mean”, the “AUC% extrap of PRX-002 (−) Isomer” value is on record as 12.904 ± 1.8410%. Also, the AUC(0-inf) (male, Sprague Dawley, rat, in vivo, po, 5 mg/kg, PRX-002 (−) Isomer oral 5 mg/kg, mean, read-out: AUCinf of PRX-002 (−) Isomer) turned out to be 427 ± 122 ng·h/mL. Moreover, for the setting “male, Sprague Dawley, rat, in vivo, po, 5 mg/kg, PRX-002 (−) Isomer oral 5 mg/kg, mean, read-out: AUClast of PRX-002 (−) Isomer”, the AUC(0-t) stood at 371 ± 99.5 ng·h/mL. The Cmax (male, Sprague Dawley, rat, in vivo, po, 5 mg/kg, PRX-002 (−) Isomer oral 5 mg/kg, mean, read-out: Cmax of PRX-002 (−) Isomer) was found to be 176 ± 47.5 ng/mL. In addition, the MRT last (male, Sprague Dawley, rat, in vivo, po, 5 mg/kg, PRX-002 (−) Isomer oral 5 mg/kg, mean, read-out: MRTlast of PRX-002 (−) Isomer) came to 88.4 ± 6.24 min. In addition, the half-life (male, Sprague Dawley, rat, in vivo, po, 5 mg/kg, PRX-002 (−) Isomer oral 5 mg/kg, mean, read-out: T1/2 of PRX-002 (−) Isomer (converted)) is 112 ± 7.92 min. Moreover, the Tmax (male, Sprague Dawley, rat, in vivo, PRX-002 (−) Isomer oral 5 mg/kg, mean, read-out: Tmax of PRX-002 (−) Isomer) came to 50 ± 17.3 min.
